Key:
[1] = system: Ca^+2 -calmodulin dependent myosin light chain phosphorylation; test: inhibition of Ca^+2-calmodulin dependent myosin light chain phosphorylation (MLCP); assay type: biochemical
Experimental: (§1) The data reported herein was obtained at a six minute time-point rather than the 1.5, 5 and 12 minute time points indicated in the superprecipitation assay of the Silver et al. paper.
(§2) The following examples illustrate the preparation of a representative number of compounds of this invention. After each example, and Ca^+2 antagonist activity of the compound is presented in terms of percent relaxation of aortic tissue (P.R.) at 10^-5 M concentration. […] Inhibition of superprecipitation (Antag. of Actin-Myosin interaction) is expressed as percent inhibition (mean±standard error of the mean for at least 3 separate experiments) at a compound concentration. In the same manner, inhibition of myosin light chain phosphorylation (Antag. of MLCP) is expressed as a percent inhibition at a compound concentration. Similarly, the antihypertensive activity is reported in terms of millimeters mercury (mmHg) systolic blood pressure (B.P.) reduction at the stated time post 50 mg/kg oral dosing or other dosing as indicated.

[2] = system: spontaneously hypertensive rats; test: decrease in systolic blood pressure of spontaneously hypertensive rats; assay type: in vivo, rat
[3] = system: arterial actin-myosin interactions; test: inhibition of superprecipitation (antagonism of arterial actin-myosin interaction); assay type: biochemical; conditions: six minute time-point, mean±SEM
Experimental: as §1, §2

Compound	inhibition of myosin light chain phosphorylation (Antag. of MLCP) ([1]; 50 μM) [%]	inhibition of myosin light chain phosphorylation (Antag. of MLCP) ([1]; 100 μM) [%]	systolic blood pressure (B.P.) reduction ([2]; 10 mg/kg, 1.5 hours) [mmHg]	systolic blood pressure (B.P.) reduction ([2]; 10 mg/kg, 4 hours) [mmHg]	inhibition of superprecipitation (Antag. of Actin-Myosin) ([3]; 50 μM) [%]	inhibition of superprecipitation (Antag. of Actin-Myosin) ([3]; 100 μM) [%]	systolic blood pressure (B.P.) reduction ([2]; 50 mg/kg oral, 1.5 hours) [mmHg]	systolic blood pressure (B.P.) reduction ([2]; 50 mg/kg oral, 4 hours) [mmHg]	systolic blood pressure (B.P.) reduction ([2]; 25 mg/kg, 1.5 hours) [mmHg]	systolic blood pressure (B.P.) reduction ([2]; 25 mg/kg, 4 hours) [mmHg]	inhibition of myosin light chain phosphorylation (Antag. of MLCP) ([1]; 25 μM) [%]	inhibition of superprecipitation (Antag. of Actin-Myosin) ([3]; 25 μM) [%]
CO[C@@H](COC(=O)C1=C(C)NC2=C(C(=O)CNC2)C1c1c(F)c(F)c(F)c(F)c1F)c1ccccc1 (stereo partly drawn) [Example 6, 1,4,5,6,7,8-Hexahydro-2-methyl-5-oxo-4-(pentafluorophenyl)-1,7-naphthyridine-3-carboxylic acid (R)-2-methoxy-2-phenylethyl ester]	56	70	-56	-49	64	74	–	–	–	–	–	–
COC(COC(=O)C1=C(C)NC2=C(C(=O)CNC2)C1c1c(F)cccc1Cl)c1ccccc1 (stereo not drawn) [Example 9, 4-(2-Chloro-6-fluorophenyl)-1,4,5,6,7,8-hexahydro-2-methyl-5-oxo-1,7-naphthyridine-3-carboxylic acid 2-methoxy-2-phenylethyl ester]	–	44	–	–	–	40	-37	-14	–	–	–	–
COC(COC(=O)C1=C(C)NC2=C(C(=O)CNC2)C1c1cccc(Cl)c1)c1ccccc1 (stereo not drawn) [Example 11, 4-(3-Chlorophenyl)-1,4,5,6,7,8-hexahydro-2-methyl-5-oxo-1,7 naphthyridine-3-carboxylic acid 2-methoxy-2-phenylethyl ester]	–	48	–	–	–	53	-29	-38	–	–	–	–
COC(COC(=O)C1=C(C)NC2=C(C(=O)CNC2)C1c1ccccc1C(F)(F)F)c1ccccc1 (stereo not drawn) [Example 12, 1,4,5,6,7,8-Hexahydro-2-methyl-5-oxo-4-[2-(trifluoromethyl)phenyl]-1,7-naphthyridine-3-carboxylic acid 2-methoxy-2-phenylethyl ester]	–	24	–	–	–	30	–	–	-56	-56	–	–
CC1=C(C(=O)OC(C)COc2ccccc2)C(c2c(F)c(F)c(F)c(F)c2F)C2=C(CNCC2=O)N1 (stereo not drawn) [Example 13, 1,4,5,6,7,8-Hexahydro-2-methyl-5-oxo-4-(pentafluorophenyl)-1,7-naphthyridine-3-carboxylic acid 1-methyl-2-phenoxyethyl ester]	–	70	–	–	–	78	-35	-60	–	–	58	61
CC1=C(C(=O)OCC2COc3ccccc3O2)C(c2c(F)c(F)c(F)c(F)c2F)C2=C(CNCC2=O)N1 (stereo not drawn) [Example 14, 1,4,5,6,7,8-Hexahydro-2-methyl-5-oxo-4-(pentafluorophenyl)-1,7-naphthyridine-3-carboxylic acid 2,3-dihydro-1,4-benzodioxin-2-ylmethyl ester]	–	76	–	–	–	80	-46	-42	–	–	59	65
CC1=C(C(=O)OCCOc2ccccc2)C(c2ccccc2C)C2=C(CNCC2=O)N1 (stereo not drawn) [Example 15, 1,4,5,6,7,8-Hexahydro-2-methyl-4-(2-methylphenyl)-5-oxo-1,7-naphthyridine-3-carboxylic acid 2-phenoxyethyl ester]	–	61±5	–	–	–	66±5	–	–	-29	-39	–	–
CC1=C(C(=O)OCCOc2ccccc2)C(c2c(F)ccc(F)c2F)C2=C(CNCC2=O)N1 (stereo not drawn) [Example 16, 1,4,5,6,7,8-Hexahydro-2-methyl-5-oxo-4-(2,3,6-trifluorophenyl)-1,7-naphthyrdine-3-carboxylic acid 2-phenoxyethyl ester]	–	28	–	–	–	34	–	–	–	-18	–	–
CC1=C(C(=O)OCCc2ccccc2)C(c2c(F)c(F)c(F)c(F)c2F)C2=C(CNCC2=O)N1 (stereo not drawn) [Example 18, 1,4,5,6,7,8-Hexahydro-2-methyl-5-oxo-4-(pentafluorophenyl)-1,7-naphthyridine-3-carboxylic acid 2-phenylethyl ester]	64	77±3	-27	-24	65	78±2	–	–	–	–	35	42
CC1=C(C(=O)OCCOc2ccccc2)C(c2cccc(Cl)c2Cl)C2=C(CNCC2=O)N1.Cl (stereo not drawn) [Example 19, 4-(2,3-Dichlorophenyl)-1,4,5,6,7,8-hexahydro-2-methyl-5-oxo-1,7-naphthyridine-3-carboxylic acid 2-phenoxyethyl ester, hydrochloride]	–	69	–	–	–	71	-50	-73	–	–	–	–
CC1=C(C(=O)OCC(C)(C)Oc2ccccc2)C(c2c(F)c(F)c(F)c(F)c2F)C2=C(CNCC2=O)N1.Cl (stereo not drawn) [Example 20, 1,4,5,6,7,8-Hexahydro-2-methyl-5-oxo-4-(pentafluorophenyl)-1,7-naphthyridine-3-carboxylic acid 2-methyl-2-phenoxypropyl ester, hydrochloride]	–	62	–	–	–	67	–	–	-64	-41	–	–
CC1=C(C(=O)OCCCCOc2ccccc2)C(c2c(F)c(F)c(F)c(F)c2F)C2=C(CNCC2=O)N1 (stereo not drawn) [Example 21, 1,4,5,6,7,8-Hexahydro-2-methyl-5-oxo-4-(pentafluorophenyl)-1,7-naphthyridine-3-carboxylic acid 4-phenoxybutyl ester]	–	77	–	–	–	80	–	–	0	-49	–	–

— patent US4596873A, “1,4,5,6,7,8-Hexahydro-2-alkyl-4-aryl-5-oxo-1,7-naphthyridine-3-carboxyl ic acid aromatic esters and pharmaceutically acceptable acid addition salts thereof useful as antihypertensive agents” (American Home Products Corporation, priority 1985, dated 1986)
